# According to patent US5219825A, “Synergistic herbicidal compositions comprising herbicides which generate toxic oxygen radicals and chelating agents which inhibit their detoxification” (Yeda Research and Development Co., Ltd., priority 1986, dated 1993):
# Key:
# [1] = system: isolated Asparagus sprengeri cells; test: Chlorophyll loss in isolated cells (synergism at the cellular level); format: cell-based; conditions: for chlorophyll remaining - % of control: paraquat 0 μM, 14 h, 1000 μEin m^-2 s^-1; for % of control chlorophyll: DDC 0.02% where added, 40 h, low light 305 μEin m^-2 s^-1
# Description: Isolated cells offer an excellent rapid method of screening for phytotoxicity using a large number of potential chelators and synergists. Asparagus sprengeri cells were isolated from cladophylls of field grown plants using the procedure of Colman et al. (Can. J. Botany 57 1505, (1979)) except that the isolation, washing and culture buffer was 50 mM HEPES brought to pH 7.2 with KOH. The cladophylls were surface sterilized using 80% aqueous ethanol. After three centrifugations to remove broken cells, the cells were diluted to 10% packed volume and 0.75 ml were placed in each well of cluster dishes. The potential synergists in this example 0.02% w/v final concentration diethyldithiocarbamate (DDC) and an oxime of 4-octyl-2-acetyl-phenol (U.S. Pat. No. 4,215,219) which complex primarily with copper and di-2-ethylhexyl-phosphoric acid which complexes primarily with zinc (Flett, Chem and Ind. 17 706, (1977)) was placed with the herbicides atrazine and paraquat. All additions were made at 100 fold the final concentration of herbicide and synergist. Paraquat was dissolved in water and atrazine in methanol. The cluster dishes were incubated on a reciprocal shaker with a clear plastic bottom and illuminated from top and bottom with fluorescent lights emitting 135 μEin.m^-2 s^-1 (top) and 170 μEin.m^-2 s^-1 (bottom). The cells were kept mixed by the shaker and incubation was at room temperature. Incubation was stopped when there was visually obvious loss of chlorophyll due to treatments in a given experiment. The cells were removed to glass centrifugation tubes, centrifuged and the supernatant removed. One ml of 80% aqueous acetone was added to extract chlorophyll, the debris were sedimented by centrifugation and chlorophyll was spectrophotometrically determined at 645 and 663 nm according to Arnon (Plant Physiology 24 1, (1949)). […] In another experiment, a larger variety of chelating synergists and oxidant generating herbicides were used, and light was given at a much higher intensity 1000 μEin m^-2 s^-1 to better approach natural sunlight which is at 1200-1500 […].
# Paraquat toxicity was measured 24 h after treatment and atrazine toxicity was measured 40 h after treatment.
# Paraquat toxicity was measured 14 h after treatment.
# [2] = system: leaves; test: Blocked chelate controls tested for synergism with paraquat; format: in vivo
# From the text: (§1) The commercial fungicides, maneb [manganese ethylene-bis(dithiocarbamate) (polymeric)] and zineb [zinc ethylene-bis (dithiocarbamate) (polymeric)] were used, they have similar structures and effects as DDC, but are blocked and act as chelate controls […] to clarify that a synergism would be due to the chelating effect of diethyldithiocarbamate. […] They could not chelate copper due to their being blocked.
# [3] = system: Conyza bonariensis paraquat sensitive (low herbicide requiring) biotype; test: Malonyldialdehyde in tissue (lipoxidation, membrane damage) after spraying; format: in vivo; conditions: for membrane damage (malonyldialdehyde release): DDC 0.5% where added, low herbicide requiring biotype, untreated control = 100; for malonyldialdehyde in tissue (% untreated control): sensitive biotype
# Description: (§2) Seeds of two biotypes of Conyza bonariensis (L.) Cronq. (synonym C. linifolia) were obtained from Egypt. The paraquat sensitive biotype was gathered near Alexendria and seeds of the resistant type from the Tahrir irrigation district. They were obtained from Dr. Martin Parham in England. Seeds were germinated in a growth room with a 14 h light period at 25° C. Plants were transferred out of doors 24 h before being sprayed. The phytotoxicity of three herbicides representative of the three different modes of generating active oxygen species known at present. Commercial paraquat (Gramoxone-ICI Plant Protection Ltd) was formulated with 0.1% (w/v) Tween-20 (a non-ionic surfactant) for spraying. The response to the range of 10^-5 M to 10^-2 M paraquat was measured by spraying two plants per concentration to run-off in the early morning. All plants were exposed to sunlight for at least 13 h (1300 μE.m^-2s^-1 photosynthetically active radiation (PAR) at mid day). Commercial acifluorfen (Blazer, Rohm, and Hass, Philadelphia, Pa., USA) to which was added 0.25% Tween-20 was sprayed to run-off. The response to spraying was measured as with paraquat 24 h after spraying. Commercial atrazine (Atranex 50 WP-Agan) was sprayed at various rates in 0.25% Tween 20 to run off. Fully expanded, 8 to 10 cm long leaves from plants in the rosette stage were used in all experiments. Phytotoxicity of acifluorfen and paraquat was measured as CO2 fixation 24 h later as follows: Detached leaves were placed on wet filter paper in a sealed chamber with 5μ Ci^14 C-sodium bicarbonate. Tartaric acid was remotely dripped on the sodium bicarbonate to release ^14 CO2. Leaves were illuminated with […] (PAR) for 30 min. Eighty percent acetone was added and the mixture put under strong light to photobleach pigments and evaporate the acetone. A scintillation mixture of Lumax:xylene (45:55) was added to the leaves and remaining water. The samples were counted and the data expressed as DPM.cm^-2. Area was measured with a planimeter from photocopies of the leaves made prior to photosynthesis measurements. Phytotoxicity of atrazine was measured as the elevated level of malonyldialdehyde in the tissue. Malonyldialdehyde (as measured with thiobarbituric acid according to Dodge and Gillham (Asp. Appl. Biol 11 97 (1986)) is a measurement of lipoxidation of unsaturated fatty acids, and provides an excellent estimation of damage by active oxygen species.
# (§3) ^b membrane damage was measured as malonyldialdehyde release
# (§4) Similarly, both the paraquat resistant and sensitive biotypes of Conyza bonariensis were treated with two other oxidant generating herbicides. Atrazine (of the triazine group) is the most widely used oxidant generating herbicides in agriculture. We used various dilutions of a commercial wettable powder (Atranex 50WP-Agan Chemicals) to which we added 0.5% DDC. The effects were scored 24 h later. […] We also tested to see whether acifluorfen, a nitro diphenyl ether herbicide would be synergized. It is generally agreed that light and oxygen are required for its action via oxidant damage. We sprayed a commercial formulation of acifluorfen (Blazer, Rohm and Haas) to which were added 0.25% Tween-20 detergent, with and without DDC. The effects were scored 24 h later.
# [4] = system: Conyza bonariensis paraquat tolerant (high herbicide requiring) biotype; test: as above; format: in vivo; conditions: for membrane damage (malonyldialdehyde release): DDC 0.5% where added, high herbicide requiring biotype, untreated control = 100; for malonyldialdehyde in tissue (% untreated control): tolerant biotype
# Description: as §2, §3, §4
# [5] = system: Conyza bonariensis high herbicide requiring biotype; test: Whole plant spray, visual rating; format: in vivo; conditions: DDC 0.5% where added, high herbicide requiring biotype; for visual ratings: scored one day after treatment
# From the text: (§5) Seeds of Conyza bonariensis were germinated and plants cultivated as outlined in Example 1. Other species were germinated in a similar mixture and treated at 10 days.
# as §1
# (§6) ^a visual ratings (scored 1 day after treatment): 0 no damage to
# (§7) slight burn; 1 moderate burn (may regenerate); 2 severe burn (will die)
# as §4
# [6] = system: Conyza bonariensis low herbicide requiring biotype; test: Whole plant spray, visual rating; format: in vivo; conditions: DDC 0.5% where added, scored one day after treatment
# From the text: as §5, §1, §6, §7, §4
# [7] = system: Conyza bonariensis paraquat sensitive biotype; test: Phytotoxicity measured as 14CO2 fixation 24 h after spraying; format: in vivo; conditions: sensitive biotype
# Description: as §2
# [8] = system: Conyza bonariensis paraquat tolerant biotype; test: as above; format: in vivo; conditions: tolerant biotype
# Description: as §2
# [9] = system: Conyza bonariensis low herbicide requiring biotype; test: Photosynthesis (14CO2 fixation) of leaf discs removed 5 h after spray treatment; format: in vivo; conditions: foliar, DDC 0.5% where added, leaf discs removed 5 h after treatment, untreated control = 100
# Description: as §4
# ^b photosynthesis (^14 CO2 fixation) was used as an
# additional measurement of phytotoxicity. Leaf discs were removed 5 h afte
# treatment for measurement
# [10] = system: bean leaf discs; test: Bean leaf disc bleaching assay; format: cell-based; conditions: 5 h at 450 μEin.m^-2 s^-1
# Description: We used this bean leaf disc system to ascertain the potential of chelators to synergize a large variety of phytotoxicants purported to act by generating active oxygen species in the light.
# Bean discs were incubated on solutions containing the above mixtures for 5 h at 450 μEin.m^-2 s^-1 and the chlorophyll remaining in the leaves was assayed.
# [11] = atrazine 20 μM spray to run off
# [12] = atrazine 40 μM spray to run off
# [13] = atrazine molar conc. 1.0 × 10^-2
# [14] = atrazine molar conc. 1.5 (× 10^-2)
# [15] = atrazine molar conc. 2.0 (× 10^-2)
# [16] = atrazine molar conc. 3.0 (× 10^-2)
# [17] = atrazine molar conc. 4.0 (× 10^-2)
# [18] = atrazine molar conc. 5.0 (× 10^-2)
# [19] = atrazine 15 μM spray to run off
# [20] = atrazine 30 μM spray to run off
# [21] = herbicide molar conc. 3.2 × 10^-3
molecule,measurement,setting,value
NCCNCCNCCN [Triethylene-tetramine],chlorophyll remaining - % of control,[1]; chelator alone 0.008%,90 % of control
zinc ethylene-bis (dithiocarbamate) (polymeric) [zineb],synergistic effects with paraquat,[2],Neither maneb nor zineb had synergistic effects with paraquat
"NCCNCCNCCNCCN [Tetraethylene-pentamine, tetraethylene pentamine]",chlorophyll remaining - % of control,[1]; chelator alone 0.025%,99 % of control
CCNc1nc(Cl)nc(NC(C)C)n1 [atrazine],membrane damage (malonyldialdehyde release),[3]; [11],130
same,membrane damage (malonyldialdehyde release),[3]; [12],225
same,malonyldialdehyde in tissue (% untreated control),[3]; [13],100 % untreated control
same,malonyldialdehyde in tissue (% untreated control),[3]; [14],135 % untreated control
same,malonyldialdehyde in tissue (% untreated control),[3]; [15],130 % untreated control
same,malonyldialdehyde in tissue (% untreated control),[3]; [16],155 % untreated control
same,malonyldialdehyde in tissue (% untreated control),[3]; [17],225 % untreated control
same,malonyldialdehyde in tissue (% untreated control),[3]; [18],320 % untreated control
same,membrane damage (malonyldialdehyde release),[4]; [11],100
same,membrane damage (malonyldialdehyde release),[4]; [12],100
same,malonyldialdehyde in tissue (% untreated control),[4]; [13],100 % untreated control
same,malonyldialdehyde in tissue (% untreated control),[4]; [14],100 % untreated control
same,malonyldialdehyde in tissue (% untreated control),[4]; [15],100 % untreated control
same,malonyldialdehyde in tissue (% untreated control),[4]; [16],100 % untreated control
same,malonyldialdehyde in tissue (% untreated control),[4]; [17],100 % untreated control
same,malonyldialdehyde in tissue (% untreated control),[4]; [18],125 % untreated control
same,% of control chlorophyll,"[1]; atrazine 3 × 10^-6 M, 3 µM",95 % of control
same,% of control chlorophyll,"[1]; atrazine 10^-5, 10 µM",92 % of control
same,visual ratings,[5]; [19],1.7
same,visual ratings,[5]; [20],1.7
same,visual ratings,[6]; [19],2.1
same,visual ratings,[6]; [20],2.3
O=C(O)c1cc(Oc2ccc(C(F)(F)F)cc2Cl)ccc1[N+](=O)[O-] [acifluorfen],% photosynthesis inhibition,[7]; [21],72%
same,% photosynthesis inhibition,[7]; herbicide molar conc. 3.2 × 10^-4,40%
same,% photosynthesis inhibition,[7]; herbicide molar conc. 10^-2,98%
same,% photosynthesis inhibition,[7]; herbicide molar conc. 10^-3,58%
same,% photosynthesis inhibition,[7]; herbicide molar conc. 10^-4,23%
same,% photosynthesis inhibition,[8]; [21],67%
same,% photosynthesis inhibition,[8]; herbicide molar conc. 10^-2,99%
same,% photosynthesis inhibition,[8]; herbicide molar conc. 10^-3,21%
same,visual rating,"[5]; acifluorfen 100 μM spray to runoff, scored 24 h after treatment",2.5
same,activity at 3 µM,[9]; acifluorfen 3 μM spray to runoff,75%
same,activity at 100 µM,[9]; acifluorfen 100 μM spray to runoff,10%
same,chlorophyll - % of control,"[10]; acifluorfen 3 μM, chelator 0.01% w/v where added",91 % of control
manganese ethylene-bis(dithiocarbamate) (polymeric) [maneb],synergistic effects with paraquat,[2],Neither maneb nor zineb had synergistic effects with paraquat
"O=C(O)c1cccc(C(=O)O)n1 [Pyridine-2,6-dicarboxylic acid]",chlorophyll remaining - % of control,[1]; chelator alone 0.005%,100 % of control
"CCCCC(CC)COP(=O)(O)OCC(CC)CCCC (centres unmarked) [di-2-ethyl-hexyl-phosphoric acid, Di-2-ethyl-hexyl phosphoric acid]",chlorophyll remaining - % of control,[1]; chelator alone 0.001%,98 % of control
same,chlorophyll - % of control,"[10]; acifluorfen 0 μM, chelator alone 0.01% w/v",98 % of control
same,chlorophyll - % of control,"[10]; acifluorfen 0 μM, chelator alone 0.02% w/v",91 % of control
same,chlorophyll - % of control,"[10]; paraquat 0 μM, chelator alone 0.01% w/v",98 % of control
"CCCCCCCCc1ccc(O)c(C(C)=NO)c1 [4-Octyl-2-acetyl-phenol oxime, oxime of 4-octyl-2-acetyl-phenol]",chlorophyll remaining - % of control,[1]; chelator alone 0.125%,96 % of control
